# Source: the supplement of paper PMC11208160
# Test: recombinant barcode read abundance after kanamycin selection (control-corrected) (log10(CPM+1)); higher = more efficient recombination; sequences stand for … in AGTGCAGAGAAAATCGGCCAGTTTTCTCTGCCTGCAGTCCGCATGCCGT…AGATTTATGCAGCGGACTGCCTTTCTCCCAAAGTGATAAACCGGACAGTATCATGGACCGGTTTTCCCGGTAATCCGTATTTGCAAGGTTGGTTTCACT; site = the 11-nt target
# Procedure, shortened: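 Two replicates per condition were plated: chloramphenicol/ampicillin LB agar for the control, and chloramphenicol/ampicillin/kanamycin with 0.1 mM IPTG for selection. The pooled E. coli screen behind them paired targets with IS621 bridge RNA target-binding loops. Recombination efficiency is expressed from averaged, control-corrected barcode counts per million at recombinant junctions, as log10(CPM+1).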
# 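Also: IS621 recombinase and bridge RNA in Escherichia coli cells.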
row,Sequence,recombinant barcode read abundance (log10)
1,GAAGCTCCTTGGGTTCTAACCTGTTGCGT (site GAAGCTCCTAC),2.81
2,GAAGCTCCTTGGGTTCTAACCTGTTGCGT (site GAGGCTCCTAC),0.581
3,GAAGTAACTTGGGTTCTAACCTGTTGCCT (site GAAGTAACTAG),1.18
4,GAAGTAACTTGGGTTCTAACCTGTTGCCT (site GACGTAACTAG),0.194
5,GAAGTAACTTGGGTTCTAACCTGTTGCCT (site GAGGTAACTAG),0.346
6,GAAGTAACTTGGGTTCTAACCTGTTGCCT (site GATGTAACTAG),0.0965
7,GAATATTCTTGGGTTCTAACCTGTTGCTT (site GAATATTCTAA),0.206
8,GAATATTCTTGGGTTCTAACCTGTTGCTT (site GAATGTTCTAA),0.0342
9,GAATCTACTTGGGTTCTAACCTGTTGCCT (site GAATCTACTAG),0.512
10,GAATCTACTTGGGTTCTAACCTGTTGCCT (site GCATCTACTAG),0.195
11,GAATCTACTTGGGTTCTAACCTGTTGCCT (site GGATCTACTAG),0.896
12,GAATCTACTTGGGTTCTAACCTGTTGCCT (site GTATCTACTAG),0.136
13,GAATCTACTTGGGTTCTAACCTGTTGCTT (site GAATCTACTAA),0.095
14,GAATCTACTTGGGTTCTAACCTGTTGCTT (site GACTCTACTAA),0.0804
15,GAATCTACTTGGGTTCTAACCTGTTGCTT (site GAGTCTACTAA),0.122
16,GAATCTACTTGGGTTCTAACCTGTTGCTT (site GATTCTACTAA),0.00713
17,GAATGGACTTGGGTTCTAACCTGTTGCGA (site CTCATATCTAA),0.0913
18,GAATGGACTTGGGTTCTAACCTGTTGCGA (site GAATGGACTTC),2.45
19,GACAAACCTTGGGTTCTAACCTGTTGCCT (site GACAAACCTAG),0.433
20,GACAAACCTTGGGTTCTAACCTGTTGCCT (site GTCAAACCTAA),0.00743
21,GACACAGCTTGGGTTCTAACCTGTTGCCT (site GAAACAGCTAG),0.145
22,GACACAGCTTGGGTTCTAACCTGTTGCCT (site GACACAGCTAG),1.26

row,Sequence,recombinant barcode read abundance (log10)
1,GACACAGCTTGGGTTCTAACCTGTTGCCT (site GAGACAGCTAG),0.118
2,GACACAGCTTGGGTTCTAACCTGTTGCCT (site GATACAGCTAG),0.372
3,GACACTTCTTGGGTTCTAACCTGTTGCCT (site GACACTTCTAG),0.133
4,GACACTTCTTGGGTTCTAACCTGTTGCCT (site GTCAATTCTAG),0.0949
5,GACATATCTTGGGTTCTAACCTGTTGCTG (site GACATATCTCA),0.403
6,GACATATCTTGGGTTCTAACCTGTTGCTG (site GACATATCTTG),0.165
7,GACCAGCCTTGGGTTCTAACCTGTTGCCT (site GACCAGCCTAA),0.277
8,GACCAGCCTTGGGTTCTAACCTGTTGCCT (site GACCAGCCTAC),0.0691
9,GACCAGCCTTGGGTTCTAACCTGTTGCCT (site GACCAGCCTAG),0.98
10,GACCAGCCTTGGGTTCTAACCTGTTGCCT (site GACCAGCCTAT),0.359
11,GACCAGTCTTGGGTTCTAACCTGTTGCGG (site GACCAGTCTCC),1.97
12,GACCAGTCTTGGGTTCTAACCTGTTGCGG (site GTCCAGGCTCC),0.128
13,GACCGCTCTTGGGTTCTAACCTGTTGCTA (site GACCGCTCTTA),1.2
14,GACCGCTCTTGGGTTCTAACCTGTTGCTA (site GTCAGCTCTTA),0.37
15,GACCGTCCTTGGGTTCTAACCTGTTGCCA (site GACCGTCCTTG),0.761
16,GACCGTCCTTGGGTTCTAACCTGTTGCCA (site GACTGTCCTTC),0.472
17,GACCGTCCTTGGGTTCTAACCTGTTGCTT (site GACCGTCCTAA),1.1
18,GACCGTCCTTGGGTTCTAACCTGTTGCTT (site GACCGTCCTAC),0.447
19,GACCGTCCTTGGGTTCTAACCTGTTGCTT (site GACCGTCCTAG),0.252
20,GACCGTCCTTGGGTTCTAACCTGTTGCTT (site GACCGTCCTAT),1.19
21,GACCGTGCTTGGGTTCTAACCTGTTGCCT (site GACCGAGCTAG),0.0758
22,GACCGTGCTTGGGTTCTAACCTGTTGCCT (site GACCGCGCTAG),0.103

row,Sequence,recombinant barcode read abundance (log10)
1,GACCGTGCTTGGGTTCTAACCTGTTGCCT (site GACCGGGCTAG),0.268
2,GACCGTGCTTGGGTTCTAACCTGTTGCCT (site GACCGTGCTAG),1.38
3,GACCTACCTTGGGTTCTAACCTGTTGCAG (site GACCTACCTCT),2.18
4,GACCTACCTTGGGTTCTAACCTGTTGCAG (site GACCTCCCTCA),0.136
5,GACCTATCTTGGGTTCTAACCTGTTGCCT (site GACCTATCTAG),1.39
6,GACCTATCTTGGGTTCTAACCTGTTGCCT (site TGTGCTACTGT),0.213
7,GACCTCCCTTGGGTTCTAACCTGTTGCTG (site GACCTACCTCT),0.219
8,GACCTCCCTTGGGTTCTAACCTGTTGCTG (site GACCTCCCTCA),2.16
9,GACGCTTCTTGGGTTCTAACCTGTTGCAT (site GACGCAACTAT),1
10,GACGCTTCTTGGGTTCTAACCTGTTGCAT (site GACGCTTCTAT),0.254
11,GACGTAACTTGGGTTCTAACCTGTTGCAG (site AGGAAGGCTTG),0.459
12,GACGTAACTTGGGTTCTAACCTGTTGCAG (site GACGTAACTCT),1.15
13,GACGTAACTTGGGTTCTAACCTGTTGCCT (site GAAGTAACTAG),0.0422
14,GACGTAACTTGGGTTCTAACCTGTTGCCT (site GACGTAACTAG),0.508
15,GACGTAACTTGGGTTCTAACCTGTTGCCT (site GAGGTAACTAG),0.0292
16,GACGTAACTTGGGTTCTAACCTGTTGCCT (site GATGTAACTAG),0.163
17,GACTAGTCTTGGGTTCTAACCTGTTGCAG (site CGGGGCCCTAA),0.156
18,GACTAGTCTTGGGTTCTAACCTGTTGCAG (site GACTAGTCTCT),2.22
19,GACTATCCTTGGGTTCTAACCTGTTGCCG (site ACTATGACTAA),0.0127
20,GACTATCCTTGGGTTCTAACCTGTTGCCG (site GACTATCCTCG),0.739
21,GACTATGCTTGGGTTCTAACCTGTTGCCT (site GACTATGCTAG),0.461
22,GACTATGCTTGGGTTCTAACCTGTTGCCT (site GCCTATGCTAG),0.291

row,Sequence,recombinant barcode read abundance (log10)
1,GACTATGCTTGGGTTCTAACCTGTTGCCT (site GGCTATGCTAG),0.0633
2,GACTATGCTTGGGTTCTAACCTGTTGCCT (site GTCTATGCTAG),0.00989
3,GACTATTCTTGGGTTCTAACCTGTTGCCT (site GAATATTCTAG),0.0378
4,GACTATTCTTGGGTTCTAACCTGTTGCCT (site GACTATTCTAG),0.212
5,GACTATTCTTGGGTTCTAACCTGTTGCCT (site GAGTATTCTAG),0.106
6,GACTATTCTTGGGTTCTAACCTGTTGCCT (site GATTATTCTAG),0.178
7,GACTCTACTTGGGTTCTAACCTGTTGCTT (site GAATCTACTAA),0.0131
8,GACTCTACTTGGGTTCTAACCTGTTGCTT (site GACTCTACTAA),0.65
9,GACTCTACTTGGGTTCTAACCTGTTGCTT (site GAGTCTACTAA),0.068
10,GACTCTACTTGGGTTCTAACCTGTTGCTT (site GATTCTACTAA),0.0521
11,GACTCTCCTTGGGTTCTAACCTGTTGCAT (site GACTCTCCTAA),0.00987
12,GACTCTCCTTGGGTTCTAACCTGTTGCAT (site GACTCTCCTAC),1.45
13,GACTCTCCTTGGGTTCTAACCTGTTGCAT (site GACTCTCCTAG),0.186
14,GACTCTCCTTGGGTTCTAACCTGTTGCAT (site GACTCTCCTAT),0.387
15,GACTCTCCTTGGGTTCTAACCTGTTGCGT (site GACTCTCCTAA),0.103
16,GACTCTCCTTGGGTTCTAACCTGTTGCGT (site GACTCTCCTAC),1.75
17,GACTCTCCTTGGGTTCTAACCTGTTGCGT (site GACTCTCCTAG),0
18,GACTCTCCTTGGGTTCTAACCTGTTGCGT (site GACTCTCCTAT),0.321
19,GACTGCCCTTGGGTTCTAACCTGTTGCCT (site GACTGCCCTAG),0.166
20,GACTGCCCTTGGGTTCTAACCTGTTGCCT (site GCCTGCCCTAG),0.164
